Assay results as given in patent US20230143604A1, “QW DOSING OF GIP RECEPTOR AGONIST PEPTIDE COMPOUNDS AND USES THEREOF” (TAKEDA PHARMACEUTICAL COMPANY LIMITED, priority 2020, published 2023).
Like-named read-outs stand apart in the source and are kept apart here.

Assays:
[1] = test system: C57BL/6J mice; test: Oral glucose tolerance test (OGTT); type: in vivo; settings: 3 nmol/kg s.c., 24 hours before glucose loading
Method: An oral glucose tolerance test (OGTT) was carried out using C57BL/6J mice with a 50% dextrose solution dosed at 5 ml/kg. Testing concentrations of 0.1 nmol/kg, 0.3 nmmol/kg, 3 nmol/kg or 10 nmol/kg were selected depending on the peptide. Each peptide or a vehicle (control group) was subcutaneously administered 24 hours (unless shown otherwise) before glucose loading and the blood glucose was measured at 0, 15, 30, and 60 minutes after glucose dosing.
% inhibition=(1−(AUC cpd−AUC naïve/AUC veh−AUC naïve))×100.

[2] = Solubility in phosphate buffer pH 7.4
Summary of the method: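 3 mg of peptide treated with 100 μL portions of 200 mM phosphate buffer pH 7.4, sonicating/vortexing up to 1 min, with further buffer added until fully dissolved. Solubility then quantified by HPLC.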

[3] = target: T1, human GLP-1R (Homo sapiens, UniProt P43220); test: Human GLP1R agonist activity, intracellular cAMP accumulation; type: cell-based; settings: HEK-293T cells overexpressing human GLP-1R, 1 hr
T1 construct: HEK-293T cells overexpressing full-length human GLP-1R; FLAG (N); host or cells: HEK-293T
Method: Cells are cultured per the manufacturer's protocol in DMEM with 10% fetal bovine serum and 1 μg/mL puromycin and stored in frozen aliquots to be used as assay ready cells. On the day of the assay, cells are removed from frozen storage, washed two times in 1× Kreb's Ringer Buffer (Zenbio, Research Triangle Park, N.C.), and re-suspended to a concentration of 4×10^5 cells/mL in 1× Kreb's Ringer Buffer. […] Cells are incubated with test compound for 1 hr at room temperature in the dark, and cAMP accumulation is measured using the Cisbio HiRange cAMP assay kit (Bedford, Mass.) per the manufacturer's protocol. Anti-cAMP antibody and d2-cAMP tracer reagents diluted in lysis/detection buffer are incubated in the dark for 1 hr, and results are measured on an Envision plate reader (Perkin Elmer, Waltham, Mass.). Data is normalized using 1 nm GLP-1 as 100% activity, and DMSO alone as 0% activity.

[4] = pH 7.4, aqueous buffer, pH 7.4 Phosphate Buffer - Solubility, 200 mM Phosphate buffer pH 7.4
[5] = pH 7.4, solubility in phosphate buffer at pH 7.4, 200 mM phosphate buffer pH 7.4
[6] = Human GLP1R cAMP EC50, HEK293T (nM)
[7] = read-out: Human GLP1R cAMP EC50, HEK293T

T1 sequence (P43220 24-463): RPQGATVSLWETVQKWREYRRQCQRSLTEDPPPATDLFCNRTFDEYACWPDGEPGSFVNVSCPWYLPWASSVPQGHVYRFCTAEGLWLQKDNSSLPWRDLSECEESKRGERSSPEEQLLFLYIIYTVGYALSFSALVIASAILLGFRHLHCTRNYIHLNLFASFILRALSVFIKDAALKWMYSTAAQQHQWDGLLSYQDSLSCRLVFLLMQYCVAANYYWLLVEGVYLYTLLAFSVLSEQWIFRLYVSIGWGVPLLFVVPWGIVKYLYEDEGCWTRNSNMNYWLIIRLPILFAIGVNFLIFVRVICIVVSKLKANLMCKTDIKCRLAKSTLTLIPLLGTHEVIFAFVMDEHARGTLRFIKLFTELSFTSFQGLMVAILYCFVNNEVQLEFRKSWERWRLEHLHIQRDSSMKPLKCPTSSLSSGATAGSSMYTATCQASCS

| Structure (SMILES) | Oral Glucose Tolerance Test Percent decrease in blood glucose AUC (%) over 60 mins [1] | solubility [2, 4] [mg/mL] | solubility [2, 5] [mg/mL] | EC50 [3, 6] [nM] | solubility ([2]; pH 7.4) [mg/mL] | solubility ([2]; pH 7.4, aqueous buffer) [mg/mL] | EC50 [3, 7] [nM] |
| --- | --- | --- | --- | --- | --- | --- | --- |
| CC[C@H](C)[C@H](NC(=O)[C@H](CO)NC(=O)[C@H](Cc1ccc(O)cc1)NC(=O)[C@H](CC(=O)O)NC(=O)[C@H](CO)NC(=O)[C@@H](NC(=O)[C@H](Cc1ccccc1)NC(=O)[C@@H](NC(=O)CNC(=O)[C@H](CCC(=O)O)NC(=O)C(C)(C)NC(=O)[C@H](Cc1ccc(O)cc1)NC)[C@@H](C)O)[C@@H](C)CC)C(=O)N[C@@H](C)C(=O)N[C@@H](CCCCNC(=O)CNC(=O)CNC(=O)CNC(=O)CNC(=O)CNC(=O)CCCCCCCCCCCCCCCCC(=O)O)C(=O)N[C@@H](CC(=O)O)C(=O)N[C@@H](CCCNC(=N)N)C(=O)NC(C)(C)C(=O)N[C@@H](C)C(=O)N[C@@H](CCC(N)=O)C(=O)NC(C)(C)C(=O)N[C@@H](CC(=O)O)C(=O)N[C@@H](Cc1ccccc1)C(=O)N[C@H](C(=O)N[C@@H](CC(N)=O)C(=O)N[C@@H](Cc1c[nH]c2ccccc12)C(=O)N[C@@H](CC(C)C)C(=O)N[C@@H](CC(C)C)C(=O)N[C@@H](C)C(=O)N[C@@H](CCC(N)=O)C(=O)N[C@@H](CO)C(=O)N1CCC[C@H]1C(=O)N[C@@H](CO)C(=O)N[C@@H](CO)C(=O)NCC(=O)N[C@@H](C)C(=O)N1CCC[C@H]1C(=O)N1CCC[C@H]1C(=O)N1CCC[C@H]1C(=O)N[C@@H](CO)C(N)=O)C(C)C [Compound 38] | 97% (3 nmol/kg) | ≥ 30 | ≥ 15 | 45.7 |  |  |  |
| CC[C@H](C)[C@H](NC(=O)[C@H](Cc1ccccc1)NC(=O)[C@@H](NC(=O)CNC(=O)[C@H](CCC(=O)O)NC(=O)C(C)(C)NC(=O)[C@H](Cc1ccc(O)cc1)NC)[C@@H](C)O)C(=O)N[C@@H](CO)C(=O)N[C@@H](CC(=O)O)C(=O)N[C@@H](Cc1ccc(O)cc1)C(=O)N[C@@H](CO)C(=O)N[C@H](C(=O)NC(C)(C)C(=O)N[C@@H](CCCCNC(=O)CNC(=O)CNC(=O)CNC(=O)CNC(=O)CNC(=O)CCCCCCCCCCCCCCCCC(=O)O)C(=O)N[C@@H](CC(=O)O)C(=O)N[C@@H](CCCNC(=N)N)C(=O)NC(C)(C)C(=O)N[C@@H](C)C(=O)N[C@@H](CCC(N)=O)C(=O)NC(C)(C)C(=O)N[C@@H](CC(=O)O)C(=O)N[C@@H](Cc1ccccc1)C(=O)N[C@H](C(=O)N[C@@H](CC(N)=O)C(=O)N[C@@H](Cc1c[nH]c2ccccc12)C(=O)N[C@@H](CC(C)C)C(=O)N[C@@H](CC(C)C)C(=O)N[C@@H](C)C(=O)N[C@@H](CCC(N)=O)C(=O)N[C@@H](CO)C(=O)N1CCC[C@H]1C(=O)N[C@@H](CO)C(=O)N[C@@H](CO)C(=O)NCC(=O)N[C@@H](C)C(=O)N1CCC[C@H]1C(=O)N1CCC[C@H]1C(=O)N1CCC[C@H]1C(=O)N[C@@H](CO)C(N)=O)C(C)C)[C@@H](C)CC [Compound 48] | 87% (3 nmol/kg) | ≥ 30 | ≥ 15 | 87.1 |  |  |  |
| CC[C@H](C)[C@H](NC(=O)[C@H](CO)NC(=O)[C@H](Cc1ccc(O)cc1)NC(=O)[C@H](CC(=O)O)NC(=O)[C@H](CO)NC(=O)[C@@H](NC(=O)[C@H](Cc1ccccc1)NC(=O)[C@@H](NC(=O)CNC(=O)[C@H](CCC(=O)O)NC(=O)C(C)(C)NC(=O)[C@H](Cc1ccc(O)cc1)NC)[C@@H](C)O)[C@@H](C)CC)C(=O)N[C@@H](C)C(=O)N[C@@H](CC(C)C)C(=O)N[C@@H](CC(=O)O)C(=O)N[C@@H](CCCNC(=N)N)C(=O)N[C@@H](CCCCNC(=O)CNC(=O)CNC(=O)CNC(=O)CNC(=O)CNC(=O)CCCCCCCCCCCCCCCCC(=O)O)C(=O)N[C@@H](C)C(=O)N[C@@H](CCC(N)=O)C(=O)NC(C)(C)C(=O)N[C@@H](CC(=O)O)C(=O)N[C@@H](Cc1ccccc1)C(=O)N[C@H](C(=O)N[C@@H](CC(N)=O)C(=O)N[C@@H](Cc1c[nH]c2ccccc12)C(=O)N[C@@H](CC(C)C)C(=O)N[C@@H](CC(C)C)C(=O)N[C@@H](C)C(=O)N[C@@H](CCC(N)=O)C(=O)N[C@@H](CO)C(=O)N1CCC[C@H]1C(=O)N[C@@H](CO)C(=O)N[C@@H](CO)C(=O)NCC(=O)N[C@@H](C)C(=O)N1CCC[C@H]1C(=O)N1CCC[C@H]1C(=O)N1CCC[C@H]1C(=O)N[C@@H](CO)C(=O)O)C(C)C [Compound 52] | 65% (3 nmol/kg) | ≥ 30 | ≥ 15 | 17 |  |  |  |
| CC[C@H](C)[C@H](NC(=O)[C@H](Cc1ccccc1)NC(=O)[C@@H](NC(=O)CNC(=O)[C@H](CCC(=O)O)NC(=O)C(C)(C)NC(=O)[C@H](Cc1ccc(O)cc1)NC)[C@@H](C)O)C(=O)N[C@@H](CO)C(=O)N[C@@H](CC(=O)O)C(=O)N[C@@H](Cc1ccc(O)cc1)C(=O)N[C@@H](CO)C(=O)N[C@H](C(=O)NC(C)(C)C(=O)N[C@@H](CCCCNC(=O)CNC(=O)CNC(=O)CNC(=O)CNC(=O)CNC(=O)CCCCCCCCCCCCCCCCC(=O)O)C(=O)N[C@@H](CC(=O)O)C(=O)N[C@@H](CCCNC(=N)N)C(=O)NC(C)(C)C(=O)N[C@@H](C)C(=O)N[C@@H](CCC(N)=O)C(=O)NC(C)(C)C(=O)N[C@@H](CC(=O)O)C(=O)N[C@@H](Cc1ccccc1)C(=O)N[C@H](C(=O)N[C@@H](CC(N)=O)C(=O)N[C@@H](Cc1c[nH]c2ccccc12)C(=O)N[C@@H](CC(C)C)C(=O)N[C@@H](CC(C)C)C(=O)N[C@@H](C)C(=O)N[C@@H](CCC(N)=O)C(=O)N[C@@H](CO)C(=O)NCC(=O)O)C(C)C)[C@@H](C)CC [Compound 53] | 59% (3 nmol/kg) |  |  |  | ≥ 15 | ≥ 30 | 47.9 |
| CC[C@H](C)[C@H](NC(=O)[C@H](Cc1ccccc1)NC(=O)[C@@H](NC(=O)CNC(=O)[C@H](CCC(=O)O)NC(=O)C(C)(C)NC(=O)[C@H](Cc1ccc(O)cc1)NC)[C@@H](C)O)C(=O)N[C@@H](CO)C(=O)N[C@@H](CC(=O)O)C(=O)N[C@@H](Cc1ccc(O)cc1)C(=O)N[C@@H](CO)C(=O)N[C@H](C(=O)NC(C)(C)C(=O)N[C@@H](CC(C)C)C(=O)N[C@@H](CC(=O)O)C(=O)N[C@@H](CO)C(=O)N[C@@H](CCCCNC(=O)CNC(=O)CNC(=O)CNC(=O)CNC(=O)CNC(=O)CNC(=O)CCCCCCCCCCCCCCCCC(=O)O)C(=O)N[C@@H](C)C(=O)N[C@@H](CCC(N)=O)C(=O)NC(C)(C)C(=O)N[C@@H](CC(=O)O)C(=O)N[C@@H](Cc1ccccc1)C(=O)N[C@H](C(=O)N[C@@H](CC(N)=O)C(=O)N[C@@H](Cc1c[nH]c2ccccc12)C(=O)N[C@@H](CC(C)C)C(=O)N[C@@H](CC(C)C)C(=O)N[C@@H](C)C(=O)N[C@@H](CCC(N)=O)C(=O)N[C@@H](CCCNC(=N)N)C(=O)NCC(=O)O)C(C)C)[C@@H](C)CC [Compound 64] | 53% (3 nmol/kg) |  |  |  | ≥ 15 | ≥ 30 | 110 |
| CC[C@H](C)[C@H](NC(=O)[C@H](CO)NC(=O)[C@H](Cc1ccc(O)cc1)NC(=O)[C@H](CC(=O)O)NC(=O)[C@H](CO)NC(=O)[C@@H](NC(=O)[C@H](Cc1ccccc1)NC(=O)[C@@H](NC(=O)CNC(=O)[C@H](CCC(=O)O)NC(=O)C(C)(C)NC(=O)[C@H](Cc1ccc(O)cc1)NC)[C@@H](C)O)[C@@H](C)CC)C(=O)N[C@@H](C)C(=O)N[C@@H](CCCCNC(=O)CNC(=O)CNC(=O)CNC(=O)CNC(=O)CNC(=O)CCCCCCCCCCCCCCCCC(=O)O)C(=O)N[C@@H](CC(=O)O)C(=O)N[C@@H](CCCNC(=N)N)C(=O)NC(C)(C)C(=O)N[C@@H](C)C(=O)N[C@@H](CCC(N)=O)C(=O)NC(C)(C)C(=O)N[C@@H](CC(=O)O)C(=O)N[C@@H](Cc1ccccc1)C(=O)N[C@H](C(=O)N[C@@H](CC(N)=O)C(=O)N[C@@H](Cc1c[nH]c2ccccc12)C(=O)N[C@@H](CC(C)C)C(=O)N[C@@H](CC(C)C)C(=O)N[C@@H](C)C(=O)N[C@@H](CCC(N)=O)C(=O)N[C@@H](CO)C(=O)N1CCC[C@H]1C(=O)N[C@@H](CO)C(=O)N[C@@H](CO)C(=O)NCC(=O)O)C(C)C [Compound 71] | 68% (3 nmol/kg) |  |  |  |  |  | 34.7 |
